One series deals with SARS-CoV-2. Briefly: Antiviral activity against SARS-CoV-2 infected in African Green monkey Vero cells assessed as inhibition of viral cytopathic effect measured after 72 hrs by inverted microscopic method. In kind it is functional, organism-based, Vero E6. The following applies: Severe acute respiratory syndrome coronavirus 2, Vero C1008, 72 h. (In general: Damage to the host cells serves as the signal in cytopathic effect assays.)

Series [1] is described as follows: in vitro. Conditions: PAMPA.
Description: (§1) Permeability of compound incubated for 3 hrs by UV plate reader based PAMPA assay
Series [2] is described as follows: Selectivity ratio of CC50 for African Green monkey Vero E6 cells to IC50 for SARS-CoV-2. In kind it is toxicity, Vero C1008.
For a further series, the system named is Vero C1008. The following applies: chlorocebus sabaeus, vero c1008, 48 h.
A short description of series [3]: Stability of compound in human plasma at 100 uM by HPLC analysis. In kind it is ADME, cell-free. Conditions: read-out: Stability.
Series [4] can be described thus: Metabolic stability of the compound in human liver microsomes S9 fraction preincubated with NADPH for 10 mins followed by compound addition at 50 uM measured upto 360 mins by HPLC analysis. The series is classed as ADME, subcellular. The following applies: read-out: Stability. (Microsomes from liver hold many membrane-bound enzymes, among them those of drug oxidation.)

In another series the test system is Vero E6. In kind it is cell-based. Conditions: Chlorocebus aethiops, time 1.0 hrs.
The conditions of series [5]: pampa, 3 h.
Description: as §1
Series [6] can be described thus: in vitro. Conditions: chlorocebus sabaeus, Vero E6 cells.
Description: (§2) Cytotoxicity against African Green monkey Vero E6 cells assessed as reduction in cell viability measured after 48 hrs by MTT assay
The nature of series [7]: Oral bioavailability in rat at 5 mg/kg. The series is classed as ADME, organism-based. The following applies: in vivo.
Series [8] in a line: in vitro. Conditions: chlorocebus sabaeus, Vero E6 cells. This is another data set of the same source.
Description: Cytotoxicity against African green monkey Vero E6 cells assessed as reduction in cell viability preincubated for 2 hrs followed by SARS-CoV-2 addition measured after 24 hrs by CPE assay

Calls of active or inactive are those of the source. No cut-off for these calls is given here.

Experimental findings from ChEMBL document CHEMBL5131509 (Eur J Med Chem, 2022) are described below.

For orientation: IC50 means the midpoint of a concentration-inhibition curve. Broadly, the Papp is a coefficient for how fast a substance crosses the barrier. Usually bioavailability stands for dose-corrected exposure relative to a reference, in per cent.

Description for Vero C1008: as §2

As to `CC(C)(C)c1cccc(NC(=O)c2cc(Cl)ccc2O)c1`, in the series on SARS-CoV-2, the IC50 is 1.51 µM. This compound came in with a Papp at 3 h in “in vitro [1]” of 18.7 ×10⁻⁶ cm/s. In [2], the selectivity ratio was 1.6. The CC50 in the series with Vero C1008 is 2.36 µM.
As to `O=C(Nc1ccccc1)c1cc(Cl)ccc1O`, the IC50 in the series on SARS-CoV-2 is 8.59 µM. In “in vitro [1]”, this compound came in with a Papp at 3 h of 16 ×10⁻⁶ cm/s. The compound further yielded a CC50 with Vero C1008 of 19.2 µM.
Take `O=C(Nc1ccc([N+](=O)[O-])c(Cl)c1)c1cc(Cl)ccc1O`: in series [3], the remaining at 100 µM was 78%. Moreover, the IC50 with SARS-CoV-2 turned out to be 0.057 µM. The remaining at 6 h, 50 µM in series [4] was 41%. In addition, in the series with Vero E6, the inhibition entry was “Active”.
For the compound `O=C(Nc1cccc([N+](=O)[O-])c1)c1cc(Cl)ccc1O`, in the series with SARS-CoV-2, the IC50 came out at 1.29 µM. In “in vitro [1]”, this compound returned a Papp at 3 h of 19.5 ×10⁻⁶ cm/s. Moreover, the CC50 with Vero C1008 turned out to be 3.53 µM.
Turning to `O=C(Nc1ccc([N+](=O)[O-])cc1)c1cc(Cl)ccc1O`, the IC50 in the series with SARS-CoV-2 turned out to be 1.11 µM. Moreover, in series [5], the permeability is given as 12.4 10^-6 cm/s.
For `Cc1ccc(O)c(C(=O)Nc2ccc([N+](=O)[O-])cc2Cl)c1`, in the series “in vitro [1]”, the Papp at 3 h worked out at 20.9 ×10⁻⁶ cm/s. The compound also showed a CC50 with Vero C1008 of 5.68 µM.
Consider `CNC(=C[N+](=O)[O-])NCCSCc1ccc(CN(C)C)o1` [RANITIDINE], for which the Papp at 3 h in the series “in vitro [1]” was 1.6 ×10⁻⁶ cm/s.
As for `COc1ccc2cc1Oc1ccc(cc1)C[C@H]1c3c(cc4c(c3Oc3cc5c(cc3OC)CCN(C)[C@@H]5C2)OCO4)CCN1C` [CEPHARANTHINE], the IC50 with SARS-CoV-2 is 2.8 µM.
`O=C(Nc1ccc(O)cc1)c1cc(Cl)ccc1O` came in with a Papp at 3 h in the series “in vitro [1]” of 33.1 ×10⁻⁶ cm/s. In “in vitro [6]”, this compound had a CC50 at 48 h of more than 100 µM.
In the case of `O=C(Nc1ccc(C(F)(F)F)cc1)c1cc(Cl)ccc1O`, the IC50 in the series on SARS-CoV-2 came out at 0.38 µM. Besides, the Papp at 3 h in the series “in vitro [1]” turned out to be 6.9 ×10⁻⁶ cm/s.
Compound `O=C(Nc1ccc(O[C@@H]2O[C@H](CO)[C@@H](O)[C@H](O)[C@H]2O)cc1)c1cc(Cl)ccc1O` yielded a Papp at 3 h in the series “in vitro [1]” of 1.9 ×10⁻⁶ cm/s. Besides, the CC50 with Vero C1008 was more than 100 µM.
The like results for `O=C(Nc1ccc([N+](=O)[O-])cc1Cl)c1cc(F)ccc1O` were, in that order, 30.7 ×10⁻⁶ cm/s and 8.15 µM.
For `Cc1ccc(C(=O)Nc2ccc([N+](=O)[O-])cc2Cl)c(O)c1` the same measures were 6.1 ×10⁻⁶ cm/s and 21.6 µM.
The like results for `O=C(Nc1ccc(F)c(Cl)c1)c1cc(Cl)ccc1O` were, in that order, 11.5 ×10⁻⁶ cm/s and 2.44 µM.
In turn, `O=C(Nc1cccc(F)c1)c1cc(Cl)ccc1O` displayed a Papp at 3 h in “in vitro [1]” of 3.7 ×10⁻⁶ cm/s. Moreover, the CC50 in the series on Vero C1008 turned out to be 3.63 µM.
`O=C(Nc1ccc(N2CCCCC2)cc1)c1cc(Cl)ccc1O` displayed a Papp at 3 h in the series “in vitro [1]” of 43.3 ×10⁻⁶ cm/s. Moreover, in the series with Vero C1008, the CC50 was found to be 65.9 µM.
Turning to `O=C(Nc1cccc(O)c1)c1cc(Cl)ccc1O`, in “in vitro [1]”, the Papp at 3 h is 15.9 ×10⁻⁶ cm/s. The compound further showed a CC50 at 48 h in the series “in vitro [6]” of more than 100 µM.
Take `O=C(Nc1ccc([N+](=O)[O-])cc1Cl)c1cc(Cl)ccc1O` [NICLOSAMIDE]: in series [7], the bioavailability came to 10%. In addition, the IC50 in the series with SARS-CoV-2 was 0.4 µM. The Papp at 3 h in “in vitro [1]” amounted to 8.5 ×10⁻⁶ cm/s. The inhibition result in the series with Vero E6 was “Active”. Further, the CC50 in the series on Vero C1008 was determined as 1.03 µM.
Take `Cc1c(O)cccc1C(=O)N[C@@H](CSc1ccccc1)[C@H](O)CN1C[C@H]2CCCC[C@H]2C[C@H]1C(=O)NC(C)(C)C`: in the series on SARS-CoV-2, the IC50 is 3.3 µM.
In the series on Vero C1008, `O=C(Nc1ccc(F)cc1)c1cc(Cl)ccc1O` came in with a CC50 of 6.78 µM. Besides, the permeability in series [5] is listed as 18.2 10^-6 cm/s.
In turn, `Cc1ccc(CNC(=O)c2cc(Cl)ccc2O)cc1` yielded a Papp at 3 h in “in vitro [1]” of 42.6 ×10⁻⁶ cm/s. The compound also yielded a CC50 in the series with Vero C1008 of 47.7 µM.
Take `O=C(Nc1cccc(C(F)(F)F)c1)c1cc(Cl)ccc1O`: the IC50 in the series on SARS-CoV-2 was determined as 0.49 µM. The compound also came in with a Papp at 3 h in “in vitro [1]” of 4.2 ×10⁻⁶ cm/s. The remaining at 6 h, 50 µM in series [4] came to 47%. The CC50 with Vero C1008 came out at 5.95 µM. This compound also showed a CC50 at 24 h in the series “in vitro [8]” of 100 µM.
As for `O=C(Nc1cccc(Cl)c1)c1cc(Cl)ccc1O`, the IC50 in the series with SARS-CoV-2 amounted to 0.39 µM. In “in vitro [1]”, the Papp at 3 h was 8.6 ×10⁻⁶ cm/s. For the same compound, the remaining at 6 h, 50 µM in series [4] stood at 33%. For the same compound, the CC50 in the series on Vero C1008 turned out to be 2.46 µM.
With `O=C(Nc1ccc([N+](=O)[O-])cc1Cl)c1ccccc1O`, the IC50 with SARS-CoV-2 was determined as 1.68 µM. The same compound returned a Papp at 3 h in the series “in vitro [1]” of 15.3 ×10⁻⁶ cm/s. Further, the selectivity ratio in series [2] was 1.2. In the series on Vero C1008, this compound showed a CC50 of 2.03 µM. Besides, in the series “in vitro [8]”, the CC50 at 24 h was found to be 100 µM.
Turning to `O=C(Nc1ccc([N+](=O)[O-])cc1Cl)c1ccccc1`, the Papp at 3 h in “in vitro [1]” turned out to be 42.2 ×10⁻⁶ cm/s. Also, the CC50 in the series on Vero C1008 is more than 100 µM.
On to `Cc1cccc(CNC(=O)c2cc(Cl)ccc2O)c1`, for which, in the series “in vitro [1]”, the Papp at 3 h amounted to 28.4 ×10⁻⁶ cm/s. The CC50 in the series with Vero C1008 is 82.4 µM.
